{"source": "patent US20260265055A1", "about": "“Sulfine-Based Compounds for Generating Hydrogen Persulfide” (Brown University, priority 2023, published 2026)", "key": {"[1]": {"test": "SSP4 fluorescence assay to determine generation of H2S2 in buffer", "excerpt": "To further evaluate the specificity of TTS in converting H2S to H2S2, SSP4 was used to monitor the formation of H2S2 in this reaction and the results were compared with a series of controls. Details of the SSP4 experiments are provided later herein. SSP4 is a well-established fluorescent sensor for sulfane sulfurs including H2S2. See Shieh, M. et al., Shining a light on SSP4: a comprehensive analysis and biological applications for the detection of sulfane sulfurs. Redox Biol. 2022, 56, 102433. […] Without wishing to be bound by scientific theory, it is believed that thiols would compete with SSP4 to react with H2S2, thereby causing decreased signals.\nSSP4 was dissolved in DMSO to obtain a 200 μM stock solution. CTAB was dissolved in ethanol to yield a 2 mM stock solution. TTS and TT were dissolved in DMSO to make 1 mM stock solutions. Na2S, Na2S2, and L-cysteine were prepared in MilliQ H2O to obtain stock solutions at 2 mM, 1 mM, and 4 mM, respectively. 50 mM PBS buffer was added to individual wells of a black polystyrene, flat-bottomed clear 96-well plate, followed by TTS (25 μM) or TT (25 μM), and Na2S (50 μM), cysteine (100 μM), or Na2S2 (25 μM). For the interference assay, TTS or TT (25 μM) were added to wells with or without Na2S (50 μM). Samples were mixed by pipetting up and down and incubated in the dark at room temperature (rt) for 30 min. Next, CTAB (50 μM) was added to all wells followed by SSP4 (5 μM), and samples were mixed by pipetting up and down. The final volume was 200 μL in each well. Samples were then incubated in the dark at room temperature for another 30 min before being measured on a Molecular Devices SpectraMax iD3 Multi-Mode Microplate Reader (emission 525 nm; excitation 485 nm; integration time […], low PMT sensitivity, attenuation 1, read height 1.00 mm)."}, "[2]": {"test": "Kinetic study of the reaction between TTS and H2S (UV-Vis, 380 nm)", "format": "physicochemical", "parameters": "unit not given here", "conditions": "TTS 50 μM, Na2S 5 mM, PBS pH 7.4, room temperature; average of 3 trials", "protocol": "FIG. 1A depicts UV-Vis absorbance spectra changes of the reaction between TTS (100 μM) and H2S (200 μM) over 1 min intervals. FIG. 1B depicts representative time-dependent [TTS] changes based on UV-Vis absorption changes at 380 nm of the reaction between TTS (50 μM) and Na2S (5 mM). FIG. 1C depicts representative time-dependent −ln([TTS]/[TTS]0) changes based on UV-Vis absorption changes at 380 nm of the reaction between TTS (50 μM) and Na2S (5 mM). […] See Kolb, H. C. et al., Click chemistry: diverse chemical function from a few good reactions. Angew. Chem. Int. Ed. 2001, 40, 2004-2021.\nKinetic study of the reaction between TTS and H2S: TTS (10 μL, 10 mM in DMSO solution, final concentration=50 μM) and Na2S (20 μL, 500 mM in MilliQ H2O, final concentration=5 mM), reacted in PBS buffer (50 mM, pH=7.4) (2 mL) at room temperature. The kinetics were detected by UV-Vis absorbance spectrum (λ=380 nm) based on the decrease of TTS. This reaction can be seen as a pseudo-first order reaction; the second-order k constant (k) was calculated by: […]\nThe final k reported above was calculated by taking the average of the k values from 3 trials. • To determine [TTS] at each time point: […]"}, "[3]": {"system": "HeLa cells", "test": "Live cell imaging of H2S2 formation with SSP4", "format": "cell-based", "conditions": "30 min", "protocol": "HeLa cells were seeded at ~7000 cells/well in a 96-well clear flat-bottomed BioLite plate (ThermoFisher Scientific, #130188) in DMEM/F12 (1:1) (Gibco, Invitrogen, #11330-032) medium supplemented with 10% fetal bovine serum (FBS) at 37° C., 5% CO2 overnight.\nPreparation before cell treatment: Na2S and Na2S2 stocks were prepared at 10 mM in sterile 1×PBS. TTS and TT were prepared at 10 mM concentrations in DMSO. They were then diluted to 50 μM concentrations in serum-free Fluorobrite DMEM in individual Eppendorf tubes (0.5% DMSO). Na2S (final concentration=100 μM) was added to the Eppendorf tube containing Fluorobrite DMEM and TTS or TT immediately before being added to the cells. Compounds were mixed by pipetting up and down prior to cell addition.\nCell treatment: Culturing media was aspirated from all wells, and cells were washed twice with 1×PBS. Compounds were added to cells (200 μL/well) and incubated for 30 min at 37° C., 5% CO2. While cells were incubating, SSP4 treatment was prepared by first adding 5 mM CTAB in ethanol to Fluorobrite DMEM followed by 6.125 mM SSP4 in DMSO to final concentrations of 100 μM and 5 μM, respectively, in a tube. The final volume was 5 mL (0.08% DMSO). Compounds were mixed by pipetting up and down prior to cell addition. After incubation, media was aspirated, and cells were washed twice with 1×PBS. SSP4 treatment was added to all wells (100 μL/well), and cells were incubated for 30 min at 37° C., 5% CO2 for 30 min. Media was then aspirated, and cells were washed three times with 1×PBS. Fluorobrite DMEM was added to all wells before imaging on the Keyence All-in-One Fluorescence Microscope (BZ-X810) (excitation: 470/40 nm; emission: 525/50 nm).\nAs shown in FIGS. 4(A)-(D), HeLa cells were treated with TTS, TTS+H2S, or TT for 30 min before the fluorescent sensor SSP4 was applied to the cells to monitor the formation of H2S2. […] Na2S2 was used as the positive control in this study (FIG. 4D). Other control studies including TT+H2S, H2S only, and SSP4 only were also performed. […] FIG. 4H is a graph of fluorescence intensities of SSP4 staining. Data are mean values ±SEM calculated using ImageJ. (n=9, where three different images were obtained from each of three samples and quantified)."}}}
{"smiles": "COC(=O)c1ccc(=S=O)sc1", "note": "[TTS, 2H-thiopyran-2-thione sulfine]", "values": [{"measurement": "SSP4 fluorescence in interference experiments with thiols", "setting": "[1]; 25 μM TTS + 50 μM Na2S + 200 μM Cys or 1 mM GSH", "result": "decreased but still significant fluorescence"}, {"measurement": "SSP4 fluorescence response (H2S2 formation)", "setting": "[1]; 25 μM compound + 50 μM Na2S (H2S), PBS, SSP4 5 μM", "result": "significant fluorescence response"}, {"measurement": "SSP4 fluorescence response (sulfane sulfur formation)", "setting": "[1]; 25 μM compound + 100 μM Cys, SSP4 5 μM", "result": "No fluorescence"}, {"measurement": "SSP4 fluorescence response (H2S2 formation)", "setting": "[1]; 25 μM compound only, SSP4 5 μM", "result": "No fluorescence"}, {"measurement": "second-order rate constant k2 of the reaction between TTS and H2S", "setting": "[2]", "result": 2.7}, {"measurement": "SSP4 fluorescence in HeLa cells", "setting": "[3]; compound 50 μM + Na2S 100 μM", "result": "Significant green fluorescence"}, {"measurement": "SSP4 fluorescence in HeLa cells", "setting": "[3]; compound only", "result": "did not show obvious fluorescence"}]}
